Experimental data published in PMC8213057, “Targeting ALK2: An Open Science Approach to Developing Therapeutics for the Treatment of Diffuse Intrinsic Pontine Glioma” (Journal of Medicinal Chemistry, 2020).

Experiments:
SNRK = biological target: T1, SNRK (Homo sapiens, UniProt Q9NRH2); assay: biochemical; settings: read-out: % enzyme activity, 1 μM; Run 1, Run 2
T1 sequence (Q9NRH2 1-765): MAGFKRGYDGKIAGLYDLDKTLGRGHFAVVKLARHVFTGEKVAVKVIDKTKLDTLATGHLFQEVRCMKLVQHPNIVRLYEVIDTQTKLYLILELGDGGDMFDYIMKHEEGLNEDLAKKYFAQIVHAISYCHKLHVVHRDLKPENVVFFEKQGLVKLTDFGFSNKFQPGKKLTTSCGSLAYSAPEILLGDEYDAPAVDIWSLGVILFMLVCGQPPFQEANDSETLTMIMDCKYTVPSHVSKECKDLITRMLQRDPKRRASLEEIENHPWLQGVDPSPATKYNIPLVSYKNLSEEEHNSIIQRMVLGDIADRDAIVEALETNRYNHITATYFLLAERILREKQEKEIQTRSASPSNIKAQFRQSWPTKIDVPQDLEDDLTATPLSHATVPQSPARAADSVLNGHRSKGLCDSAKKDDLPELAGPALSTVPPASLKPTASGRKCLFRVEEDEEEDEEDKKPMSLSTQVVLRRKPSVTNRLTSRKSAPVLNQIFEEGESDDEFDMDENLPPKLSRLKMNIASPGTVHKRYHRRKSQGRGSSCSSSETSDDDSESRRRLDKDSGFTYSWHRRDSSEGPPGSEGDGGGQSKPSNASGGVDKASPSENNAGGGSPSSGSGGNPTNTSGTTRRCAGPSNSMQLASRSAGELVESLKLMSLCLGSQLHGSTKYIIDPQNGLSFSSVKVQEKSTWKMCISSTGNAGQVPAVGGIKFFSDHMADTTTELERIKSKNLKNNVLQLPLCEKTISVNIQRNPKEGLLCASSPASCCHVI

STK33 = STK33 (Homo sapiens, UniProt Q9BYT3); settings: 1 μM; Run 1, Run 2
Sequence of STK33 (Q9BYT3 whole entry): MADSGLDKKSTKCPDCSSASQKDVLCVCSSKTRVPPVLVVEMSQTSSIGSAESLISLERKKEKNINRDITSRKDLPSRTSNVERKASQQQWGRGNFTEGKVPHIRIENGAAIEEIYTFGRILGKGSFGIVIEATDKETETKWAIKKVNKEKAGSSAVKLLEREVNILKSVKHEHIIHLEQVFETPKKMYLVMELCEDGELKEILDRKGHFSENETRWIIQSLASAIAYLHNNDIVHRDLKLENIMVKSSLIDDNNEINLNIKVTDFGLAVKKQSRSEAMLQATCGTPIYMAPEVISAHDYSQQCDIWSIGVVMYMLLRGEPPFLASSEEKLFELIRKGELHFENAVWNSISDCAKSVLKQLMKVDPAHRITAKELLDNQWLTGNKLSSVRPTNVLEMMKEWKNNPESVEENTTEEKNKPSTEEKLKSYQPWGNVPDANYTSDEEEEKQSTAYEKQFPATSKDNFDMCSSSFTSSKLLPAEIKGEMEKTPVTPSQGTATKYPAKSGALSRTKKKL

LCK = LCK (Homo sapiens, UniProt P06239); settings: 1 μM; Run 1, Run 2
Sequence of LCK (P06239 whole entry): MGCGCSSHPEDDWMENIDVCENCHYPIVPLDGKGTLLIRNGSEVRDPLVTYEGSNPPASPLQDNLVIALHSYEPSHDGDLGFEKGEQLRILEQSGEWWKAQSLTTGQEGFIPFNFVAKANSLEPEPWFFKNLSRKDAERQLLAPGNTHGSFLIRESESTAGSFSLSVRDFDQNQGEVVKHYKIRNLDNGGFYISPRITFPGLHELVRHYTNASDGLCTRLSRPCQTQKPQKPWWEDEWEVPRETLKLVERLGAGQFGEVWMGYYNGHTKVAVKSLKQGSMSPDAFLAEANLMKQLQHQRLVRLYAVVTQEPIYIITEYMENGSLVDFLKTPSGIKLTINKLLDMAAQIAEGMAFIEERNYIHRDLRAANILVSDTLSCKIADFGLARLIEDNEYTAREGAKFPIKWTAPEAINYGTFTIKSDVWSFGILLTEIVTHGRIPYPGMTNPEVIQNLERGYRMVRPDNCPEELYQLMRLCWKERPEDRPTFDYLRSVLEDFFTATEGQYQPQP

MRCKa/CDC42BPA = MRCKa/CDC42BPA (Homo sapiens, UniProt Q5VT25); settings: 1 μM; Run 1, Run 2
RSK4 = RSK4 (Homo sapiens, UniProt Q9UK32); assay: biochemical; settings: read-out: % enzyme activity, 1 μM; Run 1, Run 2
CAMK2a = CAMK2a (Homo sapiens, UniProt Q9UQM7); assay: biochemical; settings: read-out: % enzyme activity, 1 μM; Run 1, Run 2
c-MET = c-MET (Homo sapiens, UniProt P08581); settings: 1 μM; Run 1, Run 2
MELK = MELK (Homo sapiens, UniProt Q14680); assay: biochemical; settings: read-out: % enzyme activity, 1 μM; Run 1, Run 2
Sequence of MELK (Q14680 whole entry): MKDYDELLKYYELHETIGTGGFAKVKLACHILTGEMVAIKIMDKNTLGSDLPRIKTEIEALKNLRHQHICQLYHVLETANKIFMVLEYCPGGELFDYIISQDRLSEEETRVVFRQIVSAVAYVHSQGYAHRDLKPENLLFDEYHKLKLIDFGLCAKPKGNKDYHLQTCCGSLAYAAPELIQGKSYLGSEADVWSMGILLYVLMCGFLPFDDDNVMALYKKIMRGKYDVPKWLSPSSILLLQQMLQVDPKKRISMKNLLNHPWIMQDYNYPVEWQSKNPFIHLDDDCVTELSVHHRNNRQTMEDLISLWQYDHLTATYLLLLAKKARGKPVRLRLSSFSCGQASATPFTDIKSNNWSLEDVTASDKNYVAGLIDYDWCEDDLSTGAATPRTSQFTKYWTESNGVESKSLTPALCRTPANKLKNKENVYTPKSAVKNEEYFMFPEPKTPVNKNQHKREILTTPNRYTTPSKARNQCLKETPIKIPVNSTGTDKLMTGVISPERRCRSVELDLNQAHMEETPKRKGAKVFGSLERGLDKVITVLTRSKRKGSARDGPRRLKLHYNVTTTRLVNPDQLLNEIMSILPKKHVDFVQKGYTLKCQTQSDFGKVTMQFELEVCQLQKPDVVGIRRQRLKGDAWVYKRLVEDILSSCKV

CDK2/cyclin O = CDK2/cyclin O (Homo sapiens, UniProt P24941); assay: biochemical; settings: read-out: % enzyme activity, 1 μM; Run 1, Run 2
EPHA7 = EPHA7 (Homo sapiens, UniProt Q15375); settings: 1 μM; Run 1, Run 2
Sequence of EPHA7 (Q15375 28-998): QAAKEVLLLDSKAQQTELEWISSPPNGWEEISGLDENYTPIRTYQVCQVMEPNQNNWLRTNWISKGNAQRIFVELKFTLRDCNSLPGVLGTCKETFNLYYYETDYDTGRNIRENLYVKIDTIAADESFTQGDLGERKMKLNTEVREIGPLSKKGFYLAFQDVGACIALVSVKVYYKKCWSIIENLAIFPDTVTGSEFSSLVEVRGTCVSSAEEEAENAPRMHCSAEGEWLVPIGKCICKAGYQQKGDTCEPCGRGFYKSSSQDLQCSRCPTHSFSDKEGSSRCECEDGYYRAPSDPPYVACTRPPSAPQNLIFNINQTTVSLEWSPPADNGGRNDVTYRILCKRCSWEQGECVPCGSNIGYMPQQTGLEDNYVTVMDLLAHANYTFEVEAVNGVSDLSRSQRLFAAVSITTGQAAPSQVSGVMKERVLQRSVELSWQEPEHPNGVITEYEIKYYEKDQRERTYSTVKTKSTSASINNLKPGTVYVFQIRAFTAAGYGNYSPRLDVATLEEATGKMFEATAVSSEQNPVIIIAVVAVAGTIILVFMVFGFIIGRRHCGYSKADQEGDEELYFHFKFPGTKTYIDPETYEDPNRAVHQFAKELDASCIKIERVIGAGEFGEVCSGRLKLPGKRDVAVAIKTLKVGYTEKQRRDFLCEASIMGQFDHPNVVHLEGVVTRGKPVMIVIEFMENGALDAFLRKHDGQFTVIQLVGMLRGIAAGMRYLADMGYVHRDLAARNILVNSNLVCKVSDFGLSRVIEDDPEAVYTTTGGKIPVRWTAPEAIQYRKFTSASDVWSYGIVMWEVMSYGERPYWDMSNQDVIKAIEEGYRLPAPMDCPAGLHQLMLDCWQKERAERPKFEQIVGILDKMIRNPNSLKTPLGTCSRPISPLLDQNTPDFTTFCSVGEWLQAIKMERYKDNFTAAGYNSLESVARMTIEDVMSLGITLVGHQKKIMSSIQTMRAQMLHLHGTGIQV

DDR2 = biological target: T2, DDR2 (Homo sapiens, UniProt Q16832); assay: biochemical; settings: read-out: % enzyme activity, 1 μM; Run 1, Run 2
T2 sequence (Q16832 22-855): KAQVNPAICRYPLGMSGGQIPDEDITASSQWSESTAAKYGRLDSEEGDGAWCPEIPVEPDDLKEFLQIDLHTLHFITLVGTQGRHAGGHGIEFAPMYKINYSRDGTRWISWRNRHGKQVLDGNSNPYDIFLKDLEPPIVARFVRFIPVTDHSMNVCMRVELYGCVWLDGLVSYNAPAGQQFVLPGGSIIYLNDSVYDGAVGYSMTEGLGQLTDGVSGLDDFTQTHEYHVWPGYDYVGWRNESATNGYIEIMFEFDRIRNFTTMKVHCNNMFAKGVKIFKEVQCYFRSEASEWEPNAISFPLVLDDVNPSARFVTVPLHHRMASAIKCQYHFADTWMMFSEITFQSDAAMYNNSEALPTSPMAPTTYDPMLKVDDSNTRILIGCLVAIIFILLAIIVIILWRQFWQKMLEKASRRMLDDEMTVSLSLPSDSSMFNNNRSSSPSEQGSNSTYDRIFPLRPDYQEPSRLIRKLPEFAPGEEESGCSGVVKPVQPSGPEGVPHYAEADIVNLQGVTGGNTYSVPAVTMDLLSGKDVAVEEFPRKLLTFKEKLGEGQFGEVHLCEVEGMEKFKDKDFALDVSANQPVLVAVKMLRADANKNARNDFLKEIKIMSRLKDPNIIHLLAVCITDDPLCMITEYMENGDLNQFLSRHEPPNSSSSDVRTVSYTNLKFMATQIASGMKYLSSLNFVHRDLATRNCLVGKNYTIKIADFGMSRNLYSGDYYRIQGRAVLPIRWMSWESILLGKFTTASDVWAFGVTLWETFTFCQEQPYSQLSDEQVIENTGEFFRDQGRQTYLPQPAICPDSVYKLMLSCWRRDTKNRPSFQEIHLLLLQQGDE

MARK3 = MARK3 (Homo sapiens, UniProt P27448); assay: biochemical; settings: read-out: % enzyme activity, 1 μM; Run 1, Run 2
TXK = biological target: T3, TXK (Homo sapiens, UniProt P42681); settings: 1 μM; Run 1, Run 2
T3 sequence (P42681 1-527): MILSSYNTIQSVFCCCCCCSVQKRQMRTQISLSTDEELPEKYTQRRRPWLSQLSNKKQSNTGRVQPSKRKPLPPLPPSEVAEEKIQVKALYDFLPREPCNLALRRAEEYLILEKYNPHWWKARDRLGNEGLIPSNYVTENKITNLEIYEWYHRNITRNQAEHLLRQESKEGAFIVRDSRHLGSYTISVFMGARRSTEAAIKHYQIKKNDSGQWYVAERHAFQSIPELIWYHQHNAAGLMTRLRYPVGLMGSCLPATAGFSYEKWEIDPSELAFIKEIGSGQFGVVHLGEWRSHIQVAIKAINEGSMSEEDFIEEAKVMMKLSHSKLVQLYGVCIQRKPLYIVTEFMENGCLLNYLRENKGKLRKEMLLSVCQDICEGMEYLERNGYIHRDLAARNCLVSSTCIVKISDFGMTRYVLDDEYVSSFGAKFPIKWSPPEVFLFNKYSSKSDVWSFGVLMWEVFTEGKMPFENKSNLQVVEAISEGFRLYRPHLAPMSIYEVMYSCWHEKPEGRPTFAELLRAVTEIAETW

FES/FPS = FES/FPS (Homo sapiens, UniProt P07332); assay: biochemical; settings: read-out: % enzyme activity, 1 μM; Run 1, Run 2
Sequence of FES/FPS (P07332 whole entry): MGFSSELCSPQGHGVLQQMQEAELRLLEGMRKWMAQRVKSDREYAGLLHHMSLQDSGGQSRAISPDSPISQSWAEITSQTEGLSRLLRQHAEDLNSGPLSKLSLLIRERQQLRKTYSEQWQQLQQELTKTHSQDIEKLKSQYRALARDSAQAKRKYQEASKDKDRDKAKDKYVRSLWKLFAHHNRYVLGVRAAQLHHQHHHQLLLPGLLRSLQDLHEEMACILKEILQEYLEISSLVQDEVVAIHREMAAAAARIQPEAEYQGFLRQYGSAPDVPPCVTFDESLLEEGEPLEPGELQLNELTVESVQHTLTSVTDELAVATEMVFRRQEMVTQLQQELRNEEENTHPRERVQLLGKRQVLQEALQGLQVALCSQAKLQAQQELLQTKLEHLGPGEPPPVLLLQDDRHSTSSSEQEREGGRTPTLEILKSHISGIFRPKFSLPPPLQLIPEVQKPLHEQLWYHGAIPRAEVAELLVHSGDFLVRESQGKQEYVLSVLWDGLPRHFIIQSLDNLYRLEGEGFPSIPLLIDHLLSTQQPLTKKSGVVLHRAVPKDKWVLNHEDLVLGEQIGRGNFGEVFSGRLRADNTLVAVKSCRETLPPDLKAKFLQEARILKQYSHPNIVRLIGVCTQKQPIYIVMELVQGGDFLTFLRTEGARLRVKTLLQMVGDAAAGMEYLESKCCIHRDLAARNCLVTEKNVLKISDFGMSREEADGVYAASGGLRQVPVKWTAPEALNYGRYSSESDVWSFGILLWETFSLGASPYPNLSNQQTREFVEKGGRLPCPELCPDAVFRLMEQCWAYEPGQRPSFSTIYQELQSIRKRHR

DAPK1 = DAPK1 (Homo sapiens, UniProt P53355); settings: 1 μM; Run 1, Run 2
Sequence of DAPK1 (P53355 whole entry): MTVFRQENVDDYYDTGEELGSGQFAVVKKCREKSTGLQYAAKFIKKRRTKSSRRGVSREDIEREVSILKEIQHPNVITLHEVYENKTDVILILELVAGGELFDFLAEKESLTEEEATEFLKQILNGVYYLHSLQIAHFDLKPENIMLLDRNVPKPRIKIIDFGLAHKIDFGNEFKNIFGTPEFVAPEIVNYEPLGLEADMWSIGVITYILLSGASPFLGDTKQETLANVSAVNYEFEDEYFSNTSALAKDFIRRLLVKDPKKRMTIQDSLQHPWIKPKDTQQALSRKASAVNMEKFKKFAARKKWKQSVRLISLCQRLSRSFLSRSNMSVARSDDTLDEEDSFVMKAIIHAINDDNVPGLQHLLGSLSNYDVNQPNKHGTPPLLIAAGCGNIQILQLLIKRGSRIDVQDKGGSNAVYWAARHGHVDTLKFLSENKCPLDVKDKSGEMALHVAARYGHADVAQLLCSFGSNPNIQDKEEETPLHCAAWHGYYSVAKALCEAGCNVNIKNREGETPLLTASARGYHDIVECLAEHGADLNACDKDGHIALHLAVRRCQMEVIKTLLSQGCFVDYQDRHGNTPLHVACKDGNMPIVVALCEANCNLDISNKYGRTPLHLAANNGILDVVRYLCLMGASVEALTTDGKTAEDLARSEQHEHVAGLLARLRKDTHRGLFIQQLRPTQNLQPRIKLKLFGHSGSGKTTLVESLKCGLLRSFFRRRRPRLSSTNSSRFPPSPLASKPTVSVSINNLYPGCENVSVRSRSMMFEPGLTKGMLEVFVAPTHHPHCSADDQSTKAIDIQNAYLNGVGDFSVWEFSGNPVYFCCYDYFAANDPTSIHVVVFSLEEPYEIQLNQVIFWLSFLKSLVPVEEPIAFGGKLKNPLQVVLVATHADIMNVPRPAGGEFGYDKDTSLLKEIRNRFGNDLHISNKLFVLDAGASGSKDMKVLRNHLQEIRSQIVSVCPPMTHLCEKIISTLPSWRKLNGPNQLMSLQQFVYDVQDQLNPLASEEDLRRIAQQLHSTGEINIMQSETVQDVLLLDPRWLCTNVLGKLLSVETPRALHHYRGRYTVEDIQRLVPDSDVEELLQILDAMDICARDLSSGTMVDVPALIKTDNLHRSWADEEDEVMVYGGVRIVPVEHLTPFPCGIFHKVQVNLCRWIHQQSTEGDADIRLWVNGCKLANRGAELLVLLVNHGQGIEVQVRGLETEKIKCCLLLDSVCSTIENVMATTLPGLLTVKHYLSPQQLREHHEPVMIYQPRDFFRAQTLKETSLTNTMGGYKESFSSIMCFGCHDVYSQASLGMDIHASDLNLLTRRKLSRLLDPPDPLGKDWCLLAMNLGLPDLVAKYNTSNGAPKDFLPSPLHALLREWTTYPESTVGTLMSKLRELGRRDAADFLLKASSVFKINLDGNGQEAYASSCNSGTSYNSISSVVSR

Row | Structure (SMILES) | remaining activity at 1 µM (SNRK) [%] | % enzyme activity (STK33) [%] | % enzyme activity (LCK) [%] | % enzyme activity (MRCKa/CDC42BPA) [%] | remaining activity at 1 µM (RSK4) [%] | remaining activity at 1 µM (CAMK2a) [%] | % enzyme activity (c-MET) [%] | remaining activity at 1 µM (MELK) [%] | remaining activity at 1 µM (CDK2/cyclin O) [%] | % enzyme activity (EPHA7) [%] | remaining activity at 1 µM (DDR2) [%] | remaining activity at 1 µM (MARK3) [%] | % enzyme activity (TXK) [%] | remaining activity at 1 µM (FES/FPS) [%] | % enzyme activity (DAPK1) [%]
1 | COc1cc(-c2cncc(-c3ccc(N4CCN(C)CC4)cc3)c2C)cc(F)c1C(N)=O [Compound 26a, 2-Fluoro-6-methoxy-4-(4-methyl-5-(4-(4-methylpiperazin-1-yl)phenyl)pyridin-3-yl)benzamide] | 105 | 88.77 | 92.53 | 102.07 | 96 | 85.5 | 98.28 | 99.2 | 95.1 | 98.85 | 100 | 83.5 | 100.80 | 99.9 | 94.56
2 | COc1cc(-c2cncc(-c3ccc(N4C[C@@H](C)N(C)[C@@H](C)C4)cc3)c2C)cc(F)c1C(N)=O [Compound 26c, 2-Fluoro-6-methoxy-4-(4-methyl-5-(4-((3R,5S)-3,4,5-trimethylpiperazin-1-yl)phenyl)pyridin-3-yl)benzamide] | 100 | 96.94 | 98.93 | 104.72 | 95.5 | 96.7 | 106.76 | 99.4 | 92.7 | 98.36 | 92.7 | 95 | 95.85 | 98.7 | 96.25
